US10093675B2, “6,8-disubstituted-9-(heterocyclyl)purines, compositions containing these derivatives and their use in cosmetic and medicinal applications” (USTAV EXPERIMENTALNI BOTANIKY AV CR, V.V.I., priority 2014, dated 2018)

How the values were obtained:
C. elegans fem-1(hc17) = test: Lifespan of C. elegans; type: in vivo; settings: 100 microM, treated from 4th day of adulthood; DMSO vehiculum 12.98
From the text: C. elegans is a standard model of aging. Its relevance for human aging is generally accepted based primarily on molecular similarity in aging mechanisms and evolutionary conservation of several pathways related to health- and life-span including insulin/IGF-I signaling. (Olsen et. al 2006, doi: 10.1196/annals.1354.015) It is used for drug screening campaigns (reviewed e.g. in Kaletta et al. 2006, doi: 10.1038/nrd2031) including those searching for compounds with cytoprotective activity. Compounds with a life-span extending effect in C. elegans and known health benefits in human include resveratrol, ECG and curcumin (Liao et, al 2011, doi: 10.1016/j.mad.2011.07.008; Wood et al. 2004, doi: 10.1038/nature02789; Abbas et al. 2009, doi: 10.1055/s-0028-1088378). The strain used in this experiment was fem-1(hc17). When grown at 25° C. all animals develop into females which prevents further reproduction and contamination of experiment with progeny. Age-synchronized adults (obtained by sodium hypochlorite treatment) were maintained in liquid S-complete medium. […] Living worms (i.e those moving when exposed to intensive light) were counted in a microscope every 2-3 days until the worms reached 22nd day of adulthood. The effects of the compounds on worm life-span were evaluated in software OASIS (Yang et al 2011, doi: 10.1371/journal.pone.002352).

[1] = tested on: human diploid fibroblasts (HDF cells; HDF25, HDF45, HDF80); test: Inhibition of human cell aging: senescent cells by beta-galactosidase staining; type: cell-based
Method in brief: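 Cells of passages 25, 45 and 80 fixed 5 min at room temperature in 2% formaldehyde/0.2% glutaraldehyde in PBS, then incubated at 37° C with beta-galactosidase substrate. Senescent cells identified by blue staining.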

[2] = tested on: detached leaves of Triticum aestivum cv. Hereward; test: Membrane lipid peroxidation (MDA, TBA method) in detached wheat leaves during dark senescence; type: in vivo; settings: four days in the dark, Control 18.9 (±2.2)
Method in brief: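 Leaf tips from 7-day wheat seedlings were kept with compound or kinetin for four days in the dark. 100 mg tissue was extracted in 80% methanol and heated 30 min at 95 °C with 0.5% TBA/0.1% TCA. MDA came from A532 minus A600, using 155 mM^−1cm^−1.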

[3] = Radical scavenging activity determined by ORAC (Oxygen Radical Absorbance Capacity); type: biochemical; settings: Mean ± SD (n = 3); net area under the curve relative to trolox, equimolar basis
Description: The ability of compounds to scavenge free radicals in vitro was determined by Oxygen Radical Absorbance Capacity (ORAC) method. Fluorescein (100 μL, […]) and 25 μL of compound solution were added into each working well in a 96-well microplate preincubated at 37° C. Thereafter, 25 μL of 250 mM AAPH was quickly added, microplate was shaken for 5 s and the fluorescence (Ex. 485 nm, Em. 510 nm) was read every 3 min over 90 min by using microplate reader Infinite 200 (TECAN, Switzerland). The net area under the curve was used to express antioxidant activity relative to trolox which was used as a standard.

SMILES | restricted mean of life-span (C. elegans fem-1(hc17)) | SENESCENT CELLS (%) HDF25 ([1]; human diploid fibroblasts passage 25, beta-galactosidase staining) | SENESCENT CELLS (%) HDF45 ([1]; human diploid fibroblasts passage 45, beta-galactosidase staining) | SENESCENT CELLS (%) HDF80 ([1]; human diploid fibroblasts passage 80, beta-galactosidase staining) | MDA (nmol/g FW) [2] | ORAC (compound/trolox ratio) [3]
c1ccc(CNc2ncnc3nc[nH]c23)cc1 [6-benzylaminopurine, reference compound] | 12.95 | 5% | 9% | 45% | – | –
CC(C)=CCNc1ncnc2c1nc(NCCN)n2C1CCCCO1 (stereo not shown) [Compound 172, 8-(2-Aminoethylamino)-6-(3-methylbut-2-en-1-ylamino)-9-(tetrahydropyran-2-yl)-9H-purine] | – | – | – | – | 10.8 (±0.9) nmol/g FW | 28.3 ± 1.6
OCCNc1nc2c(NCc3ccco3)ncnc2n1C1CCCCO1 (stereo not shown) [Compound 181, 6-Furfurylamino-8-(2-hydroxyethylamino)-9-(tetrahydropyran-2-yl)-9H-purine] | – | – | – | – | 9.5 (±0.5) nmol/g FW | 78.1 ± 3.9
OCCCNc1nc2c(NCc3ccco3)ncnc2n1C1CCCCO1 (stereo not shown) [Compound 185, 6-Furfurylamino-8-(3-hydroxypropylamino)-9-(tetrahydropyran-2-yl)-9H-purine] | – | – | – | – | 10.2 (±1.1) nmol/g FW | 48.3 ± 2.3
